From patent US5306639A, “DNA encoding glucanase enzymes” (priority 1985, dated 1994)
Like-named read-outs stand apart in the source and are kept apart here.

Columns and labels:
[1] = molecular target: T1, dextranase (Arthrobacter sp., UniProt P39652); assay: Effects of metallic ions and enzyme inhibitors on dextranase activity; format: biochemical, Arthrobacter sp. CB-8; conditions: for inhibition of dextranase (in words): summary of Table 6; for activity at 1000 µM: read-out: Relative activity (%) of dextranase
T1 construct: the mature dextranase protein consisting of 591 amino acid residues; endogenous in cells; host or cells: Arthrobacter sp; CB-8 (FERM BP-995), enzyme purified from the culture
T1 sequence (P39652 50-640): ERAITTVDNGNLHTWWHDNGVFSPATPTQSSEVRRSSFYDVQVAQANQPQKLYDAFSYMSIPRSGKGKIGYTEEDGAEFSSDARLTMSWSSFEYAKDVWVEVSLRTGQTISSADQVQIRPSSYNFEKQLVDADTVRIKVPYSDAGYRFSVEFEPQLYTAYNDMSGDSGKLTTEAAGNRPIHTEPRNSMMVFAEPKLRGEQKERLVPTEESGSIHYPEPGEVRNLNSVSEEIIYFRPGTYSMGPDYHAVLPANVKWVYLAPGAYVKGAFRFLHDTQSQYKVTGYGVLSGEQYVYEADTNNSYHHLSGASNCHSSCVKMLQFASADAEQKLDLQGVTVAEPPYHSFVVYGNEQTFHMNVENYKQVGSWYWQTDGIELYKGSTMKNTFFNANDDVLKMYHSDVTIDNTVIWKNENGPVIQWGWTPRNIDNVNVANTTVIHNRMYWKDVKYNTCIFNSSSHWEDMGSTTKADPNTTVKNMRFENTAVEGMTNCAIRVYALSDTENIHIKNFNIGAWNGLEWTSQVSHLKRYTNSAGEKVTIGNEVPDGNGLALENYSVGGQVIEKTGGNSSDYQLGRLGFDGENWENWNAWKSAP
Experimental: 0.1 ml of the enzyme solution is added to 0.9 ml of 50 mM phosphate buffer, pH 6.5, containing 0.555% dextran (molecular weight: 10,000~20,000),and the mixture is incubated at 37° C. for 30 minutes. After the reaction is stopped, the amount of reducing sugar produced is measured by Somogyi-Nelson method. The enzymatic activity which increases a reducing power equivalent to 1 μ mole of glucose per 1 minute was defined as one unit.

[2] = system: α-1,3 glucanase I; assay: Effects of metallic ions and enzyme inhibitors on α-1,3 glucanase I; format: biochemical, Bacillus circulans BC-8
Experimental: (§1) Both α-1,3 glucanase I and II are inhibited by Fe^2+, Pb^2+, and […].
(§2) 0.1 ml of α-1,3 glucanase solution was added to 0.2 ml of 1.3-α-D glucan suspension (6 mg/ml, 50 mM phosphate buffer, pH 7.0), and the mixture was incubated for 16 hours at 40° C. The reaction was terminated by adding ethanol (final concentration was 60%), and amount of the sugar which had become soluble in this condition was determined by the phenol sulfuric acid method.
(§3) Under the above-mentioned reaction conditions, the enzyme activity which produced an amount of sugar soluble in 60% ethanol and corresponding to 100 nmol of glucose was defined as one unit. In practice, α-1,3 glucanase solutions of various concentrations were used for developing the standard curve, and the enzyme activity was read out on it.

[3] = system: α-1,3 glucanase II; assay: Effects of metallic ions and enzyme inhibitors on α-1,3 glucanase II; format: biochemical, Bacillus circulans BC-8
Experimental: as §1, §2, §3

[4] = metallic ion or inhibitor 1 mM, none = 100
[5] = metallic ion or inhibitor 0.1 mM, none = 100

| Structure (SMILES) | Relative activity (%) of dextranase [1, 4] [%] | inhibition of α-1,3 glucanase I enzymatic activity [2] | inhibition of α-1,3 glucanase II enzymatic activity [3] | other results |
| --- | --- | --- | --- | --- |
| [Cl][Mn][Cl] [MnCl2] | 77 | – | – | – |
| [Cl-].[Cl-].[Zn+2] [ZnCl2] | 77 | – | – | – |
| O=[N+]([O-])[O-].[Ag+] [AgNO3] | – | significant inhibition | significant inhibition | Relative activity (%) of dextranase [1, 5]: 0%; inhibition of dextranase (in words) [1]: significantly inhibited |
| O=S(=O)([O-])[O-].[Mg+2] [MgSO4] | 113 | – | – | – |
| [Cl][Pb][Cl] [PbCl2] | 103 | inhibited | inhibited | – |
| O=C(O)CN(CCN(CC(=O)O)CC(=O)O)CC(=O)O [EDTA] | – | – | – | activity at 1000 µM [1]: 122% |
| O=C(O)c1cc[c]([Hg][Cl])cc1 [pCMB, p-chloromercuribenzoic acid] | 29 | significant inhibition | significant inhibition | inhibition of dextranase (in words) [1]: inhibited strongly |
| [Cl-].[Na+] [NaCl] | – | – | – | Relative activity (%) of dextranase [1]: 100% |
| O=S(=O)([O-])[O-].[Cu+2] [CuSO4] | – | – | – | Relative activity (%) of dextranase [1, 5]: 7%; inhibition of dextranase (in words) [1]: significantly inhibited |
| [Cl][Fe][Cl] [FeCl2] | 115 | inhibited | inhibited | – |
| c1cnc2c(c1)ccc1cccnc12 [o-Phenanthroline] | – | – | – | activity at 1000 µM [1, 4]: 100% |
| [Cl][Hg][Cl] [HgCl2] | – | significant inhibition | significant inhibition | Relative activity (%) of dextranase [1, 5]: 0%; inhibition of dextranase (in words) [1]: significantly inhibited |
| [Cl][Fe]([Cl])[Cl] [FeCl3] | 104 | – | – | – |
| [Cl-].[K+] [KCl] | – | – | – | Relative activity (%) of dextranase ([1]; metallic ion or inhibitor 10 mM, none = 100): 113% |
| [Ca+2].[Cl-].[Cl-] [CaCl2] | 113 | – | – | – |
